Source: article PMC8302598, “Rapid discovery of self-assembling peptides with one-bead one-compound peptide library” (Nature Communications, 2021)

Test: Appearance and TEM of 30 mM peptide in water
Type: physicochemical
Conditions: for Nanostructure under TEM: 30 mM in H2O; for Appearance of peptide in water: 30 mM in water, sonicated 3 min
Experimental: To further characterize these self-assembling peptides, we selected two positive peptides (FFVDF and YFTEF) and a negative control peptide (PFTTR) for the following studies: Fourier transform infrared (FT-IR) spectroscopy, UV−Vis spectra, and transmission electron microscopy (TEM).
Pentapeptides monomers were dissolved in DMSO at a concentration of 5.0 mM, followed by quick injection into water at a volume ratio of 1:99 for DMSO and H2O to obtain the nanomaterials solution (50 μM). For 30 mM pentapeptide solution, the pentapeptide was dissolved in water and sonicated for 3 min.
The pentapeptide solution with the concentration of 20 μM (10 μL) was placed dropwise onto a copper mesh for 5 min, then most of the liquid was removed through a filter paper. Ten microliters of uranyl acetate solution were employed to stain the samples for 5 min, followed by drying the spare liquid with the filter. Finally, the copper mesh was washed with 10 μL of deionized water, which was blotted after staining and drying at room temperature. All of the samples were observed by TEM (Tecnai G2 20 S-TWIN) at an accelerating voltage of 200 kV.

Row | Substance | Nanostructure under TEM | Appearance of peptide in water
1 | YFTEF [self-assembling pentapeptide identified from OBOC library] | entangled fibrous network | milky hydrogel
2 | FFVDF [self-assembling pentapeptide identified from OBOC library, forms nanofibers] | entangled fibrous network | milky white solution
